Measurements as given in patent publication US20210045385A1, “PYRIDAZINONE-SUBSTITUTED KETOXIMES AS HERBICIDES” (FMC Corporation, priority 2018, published 2021).

Experiments:
Type in all cases: in vivo
[1] = test system: wheat (Triticum aestivum); test: Test A postemergence, visual plant response rating; details: for Wheat plant response rating (0 to 100 scale): 500 g ai/ha, postemergence, 0 is no effect, 100 is complete control; for Wheat plant response rating: Postemergence, 125 g ai/ha, 0 to 100 scale (0 no effect, 100 complete control)
In short: (§1)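 Ratings use a 0–100 visual scale (100 = complete control) against untreated controls, scored about 10 days after greenhouse treatment. Test chemicals were formulated in surfactant-containing non-phytotoxic solvent and applied either as soil spray after planting (preemergence) or onto one- to two-leaf, 2–10 cm plants (postemergence).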

[2] = test system: foxtail, giant (giant foxtail, Setaria faberii); test: Test A postemergence, visual plant response rating; details: for Foxtail, Giant plant response rating (0 to 100 scale): 500 g ai/ha, postemergence, 0 is no effect, 100 is complete control; for Foxtail, Giant plant response rating: Postemergence, 125 g ai/ha, 0 to 100 scale (0 no effect, 100 complete control)
In short: as §1

[3] = test system: Italian ryegrass (Lolium multiflorum); test: Test A postemergence, visual plant response rating; details: for Ryegrass, Italian plant response rating (0 to 100 scale): 500 g ai/ha, postemergence, 0 is no effect, 100 is complete control; for Ryegrass, Italian plant response rating: Postemergence, 125 g ai/ha, 0 to 100 scale (0 no effect, 100 complete control)
In short: as §1

[4] = test system: barnyardgrass (Echinochloa crus-galli); test: Test A postemergence, visual plant response rating; details: for Barnyardgrass plant response rating (0 to 100 scale): 500 g ai/ha, postemergence, 0 is no effect, 100 is complete control; for Barnyardgrass plant response rating: Postemergence, 125 g ai/ha, 0 to 100 scale (0 no effect, 100 complete control)
In short: as §1

[5] = test system: pigweed (Amaranthus retroflexus); test: Test A postemergence, visual plant response rating; details: for Pigweed plant response rating (0 to 100 scale): 500 g ai/ha, postemergence, 0 is no effect, 100 is complete control; for Pigweed plant response rating: Postemergence, 125 g ai/ha, 0 to 100 scale (0 no effect, 100 complete control)
In short: as §1

[6] = test system: blackgrass (Alopecurus myosuroides); test: Test A postemergence, visual plant response rating; details: for Blackgrass plant response rating (0 to 100 scale): 500 g ai/ha, postemergence, 0 is no effect, 100 is complete control; for Blackgrass plant response rating: Postemergence, 125 g ai/ha, 0 to 100 scale (0 no effect, 100 complete control)
In short: as §1

corn (Zea mays) = test: Test A postemergence, visual plant response rating; details: for Corn plant response rating (0 to 100 scale): 500 g ai/ha, postemergence, 0 is no effect, 100 is complete control; for Corn plant response rating: Postemergence, 125 g ai/ha, 0 to 100 scale (0 no effect, 100 complete control)
In short: as §1

[7] = test system: ragweed (common ragweed, Ambrosia elatior); test: Test A postemergence, visual plant response rating; details: for Ragweed plant response rating (0 to 100 scale): 500 g ai/ha, postemergence, 0 is no effect, 100 is complete control; for Ragweed plant response rating: Postemergence, 125 g ai/ha, 0 to 100 scale (0 no effect, 100 complete control)
In short: as §1

[8] = test system: galium (catchweed bedstraw, Galium aparine); test: Test A postemergence, visual plant response rating; details: for Galium plant response rating (0 to 100 scale): 500 g ai/ha, postemergence, 0 is no effect, 100 is complete control; for Galium plant response rating: Postemergence, 125 g ai/ha, 0 to 100 scale (0 no effect, 100 complete control)
In short: as §1

kochia (Kochia scoparia) [9] = test: Test A postemergence, visual plant response rating; details: for Kochia plant response rating (0 to 100 scale): 500 g ai/ha, postemergence, 0 is no effect, 100 is complete control; for Kochia plant response rating: Postemergence, 125 g ai/ha, 0 to 100 scale (0 no effect, 100 complete control)
In short: as §1

[10] = test system: sedge, umbrella (small-flower umbrella sedge, Cyperus difformis); test: Test B flooded paddy test, visual plant response rating; details: 250 g ai/ha, Flood, applied to paddy water, 2-leaf stage, evaluated after 13 to 15 days
In short: (§2)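 Flooded-pot treatment: water 3 cm over the soil, chemical delivered into that water, depth unchanged for the duration. Assessed by eye versus controls following 13–15 greenhouse days; plants were at 2 leaves when dosed.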

[11] = test system: barnyardgrass (Echinochloa crus-galli); test: as above; details: 250 g ai/ha, Flood, applied to paddy water, 2-leaf stage, evaluated after 13 to 15 days
In short: as §2

rice (Oryza sativa) = test: as above; details: 250 g ai/ha, Flood, applied to paddy water, 2-leaf stage, evaluated after 13 to 15 days
In short: as §2

[12] = test system: ducksalad (Heteranhera limosa); test: as above; details: 250 g ai/ha, Flood, applied to paddy water, 2-leaf stage, evaluated after 13 to 15 days
In short: as §2

[13] = test system: foxtail, giant (giant foxtail, Setaria faberii); test: Test A preemergence, visual plant response rating; details: for Foxtail, Giant plant response rating: 125 g ai/ha, preemergence, 0 to 100 scale, 0 no effect, 100 complete control; for Foxtail, Giant plant response rating (0 to 100 scale): 500 g ai/ha Preemergence, approx. 10 days
In short: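 Preemergence: seeds in loam/sand blend given directed soil spray of compound in non-phytotoxic solvent with surfactant. Postemergence: plants 2–10 cm, one- to two-leaf stage, sprayed with same formulation. Visual injury rated vs untreated controls after ~10 days in greenhouse, 0 (no effect) to 100 (complete control).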

[14] = test system: Italian ryegrass (Lolium multiflorum); test: Test A preemergence, visual plant response rating; details: for Ryegrass, Italian plant response rating: 125 g ai/ha, preemergence, 0 to 100 scale, 0 no effect, 100 complete control; for Ryegrass, Italian plant response rating (0 to 100 scale): 500 g ai/ha Preemergence, approx. 10 days
In short: as §1

[15] = test system: barnyardgrass (Echinochloa crus-galli); test: Test A preemergence, visual plant response rating; details: for Barnyardgrass plant response rating: 125 g ai/ha, preemergence, 0 to 100 scale, 0 no effect, 100 complete control; for Barnyardgrass plant response rating (0 to 100 scale): 500 g ai/ha Preemergence, approx. 10 days
In short: as §1

[16] = test system: pigweed (Amaranthus retroflexus); test: Test A preemergence, visual plant response rating; details: for Pigweed plant response rating: 125 g ai/ha, preemergence, 0 to 100 scale, 0 no effect, 100 complete control; for Pigweed plant response rating (0 to 100 scale): 500 g ai/ha Preemergence, approx. 10 days
In short: as §1

[17] = test system: ragweed (common ragweed, Ambrosia elatior); test: Test A preemergence, visual plant response rating; details: for Ragweed plant response rating: 125 g ai/ha, preemergence, 0 to 100 scale, 0 no effect, 100 complete control; for Ragweed plant response rating (0 to 100 scale): 500 g ai/ha Preemergence, approx. 10 days
In short: as §1

kochia (Kochia scoparia) [18] = test: Test A preemergence, visual plant response rating; details: for Kochia plant response rating: 125 g ai/ha, preemergence, 0 to 100 scale, 0 no effect, 100 complete control; for Kochia plant response rating (0 to 100 scale): 500 g ai/ha Preemergence, approx. 10 days
In short: as §1

| Structure (SMILES) | Wheat plant response rating (0 to 100 scale) [1] | Wheat plant response rating [1] | Foxtail, Giant plant response rating (0 to 100 scale) [2] | Foxtail, Giant plant response rating [2] | Ryegrass, Italian plant response rating (0 to 100 scale) [3] | Ryegrass, Italian plant response rating [3] | Barnyardgrass plant response rating (0 to 100 scale) [4] | Barnyardgrass plant response rating [4] | Pigweed plant response rating (0 to 100 scale) [5] | Pigweed plant response rating [5] | Blackgrass plant response rating (0 to 100 scale) [6] | Blackgrass plant response rating [6] | Corn plant response rating (0 to 100 scale) (corn (Zea mays)) | Corn plant response rating (corn (Zea mays)) | Ragweed plant response rating (0 to 100 scale) [7] | Ragweed plant response rating [7] | Galium plant response rating (0 to 100 scale) [8] | Galium plant response rating [8] | Kochia plant response rating (0 to 100 scale) (kochia (Kochia scoparia) [9]) | Kochia plant response rating (kochia (Kochia scoparia) [9]) | also measured |
| --- | --- | --- | --- | --- | --- | --- | --- | --- | --- | --- | --- | --- | --- | --- | --- | --- | --- | --- | --- | --- | --- |
| CON=C(c1ccccc1C1CC1)c1c(O)c(C)nn(C)c1=O [Compound 104] | 80 | 40 | 80 | 70 | 100 | 90 | 80 | 40 | 90 | 70 | 90 | 80 | 30 | 30 | 90 | 80 | 100 | 90 | 80 | 70 | Plant response rating, Sedge, Umbrella (0 to 100 scale, 0 is no effect, 100 is complete control) [10]: 0; Plant response rating, Barnyardgrass (0 to 100 scale, 0 is no effect, 100 is complete control) [11]: 0; Plant response rating, Rice (0 to 100 scale, 0 is no effect, 100 is complete control) (rice (Oryza sativa)): 0; Plant response rating, Ducksalad (0 to 100 scale, 0 is no effect, 100 is complete control) [12]: 0; Foxtail, Giant plant response rating [13]: 80; Foxtail, Giant plant response rating (0 to 100 scale) [13]: 100; Ryegrass, Italian plant response rating [14]: 90; Ryegrass, Italian plant response rating (0 to 100 scale) [14]: 100; Barnyardgrass plant response rating [15]: 60; Barnyardgrass plant response rating (0 to 100 scale) [15]: 80; Pigweed plant response rating [16]: 70; Pigweed plant response rating (0 to 100 scale) [16]: 70; Ragweed plant response rating [17]: 50; Ragweed plant response rating (0 to 100 scale) [17]: 80; Kochia plant response rating (kochia (Kochia scoparia) [18]): 20; Kochia plant response rating (0 to 100 scale) (kochia (Kochia scoparia) [18]): 70 |
| CON=C(c1ccccc1C1CC1)c1c(O)c(C)nn(C)c1=O [Compound 105] | 80 | 60 | 80 | 70 | 90 | 90 | 80 | 40 | 70 | 60 | 90 | 80 | 30 | 10 | 90 | 90 | 90 | 90 | 80 | 70 | Plant response rating, Sedge, Umbrella (0 to 100 scale, 0 is no effect, 100 is complete control) [10]: 0; Plant response rating, Barnyardgrass (0 to 100 scale, 0 is no effect, 100 is complete control) [11]: 0; Plant response rating, Rice (0 to 100 scale, 0 is no effect, 100 is complete control) (rice (Oryza sativa)): 0; Plant response rating, Ducksalad (0 to 100 scale, 0 is no effect, 100 is complete control) [12]: 0; Foxtail, Giant plant response rating [13]: 60; Foxtail, Giant plant response rating (0 to 100 scale) [13]: 90; Ryegrass, Italian plant response rating [14]: 90; Ryegrass, Italian plant response rating (0 to 100 scale) [14]: 100; Barnyardgrass plant response rating [15]: 60; Barnyardgrass plant response rating (0 to 100 scale) [15]: 80; Pigweed plant response rating [16]: 70; Pigweed plant response rating (0 to 100 scale) [16]: 70; Ragweed plant response rating [17]: 50; Ragweed plant response rating (0 to 100 scale) [17]: 60; Kochia plant response rating (kochia (Kochia scoparia) [18]): 10; Kochia plant response rating (0 to 100 scale) (kochia (Kochia scoparia) [18]): 70 |
| Cc1nn(C)c(=O)c(C(=NOCC=CCl)c2ccc(F)c3ccccc23)c1O [Compound 106] | 50 | 0 | 70 | 60 | 100 | 70 | 90 | 80 | 80 | 70 | 90 | 80 | 30 | 20 | 90 | 70 | 90 | 80 | 50 | 20 | Plant response rating, Sedge, Umbrella (0 to 100 scale, 0 is no effect, 100 is complete control) [10]: 0; Plant response rating, Barnyardgrass (0 to 100 scale, 0 is no effect, 100 is complete control) [11]: 0; Plant response rating, Rice (0 to 100 scale, 0 is no effect, 100 is complete control) (rice (Oryza sativa)): 0; Plant response rating, Ducksalad (0 to 100 scale, 0 is no effect, 100 is complete control) [12]: 0; Foxtail, Giant plant response rating [13]: 100; Foxtail, Giant plant response rating (0 to 100 scale) [13]: 100; Ryegrass, Italian plant response rating [14]: 60; Ryegrass, Italian plant response rating (0 to 100 scale) [14]: 90; Barnyardgrass plant response rating [15]: 50; Barnyardgrass plant response rating (0 to 100 scale) [15]: 90; Pigweed plant response rating [16]: 50; Pigweed plant response rating (0 to 100 scale) [16]: 80; Ragweed plant response rating [17]: 40; Ragweed plant response rating (0 to 100 scale) [17]: 80; Kochia plant response rating (kochia (Kochia scoparia) [18]): 0; Kochia plant response rating (0 to 100 scale) (kochia (Kochia scoparia) [18]): 20 |
